Measurements as given in patent US8344008B2 (Janssen Pharmaceutica NV, priority 2007, dated 2013).
Structures can show the parent of a compound that is named as a salt.

Target: T1, recombinant human LTA4 hydrolase (rhLTA4H) (Homo sapiens, UniProt P09960)
T1 construct: made in house; host or cells: Spodoptera frugiperda (Sf-9) cells, baculovirus (pFastBac1)
T1 sequence (P09960 1-611): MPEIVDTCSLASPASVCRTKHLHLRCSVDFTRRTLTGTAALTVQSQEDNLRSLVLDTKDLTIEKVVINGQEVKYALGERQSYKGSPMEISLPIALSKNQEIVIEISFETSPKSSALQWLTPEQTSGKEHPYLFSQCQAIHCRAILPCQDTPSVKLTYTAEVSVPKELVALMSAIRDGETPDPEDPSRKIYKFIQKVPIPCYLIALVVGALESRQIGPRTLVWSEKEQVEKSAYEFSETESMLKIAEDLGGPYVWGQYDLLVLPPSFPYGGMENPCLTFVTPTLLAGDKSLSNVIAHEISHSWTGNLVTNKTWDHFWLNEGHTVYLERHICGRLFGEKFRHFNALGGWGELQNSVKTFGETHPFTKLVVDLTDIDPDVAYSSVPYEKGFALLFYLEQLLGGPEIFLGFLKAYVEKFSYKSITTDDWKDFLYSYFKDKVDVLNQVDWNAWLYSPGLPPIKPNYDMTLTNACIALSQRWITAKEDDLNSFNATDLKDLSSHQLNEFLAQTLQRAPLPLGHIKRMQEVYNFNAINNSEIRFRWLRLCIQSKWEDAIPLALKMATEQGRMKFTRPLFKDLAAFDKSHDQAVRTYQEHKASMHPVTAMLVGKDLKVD
Assay: Recombinant Human LTA4 Hydrolase Assay for LTA4 Hydrolase Inhibitor Activity
Assay type: biochemical
Conditions: average of results obtained; LTB4 quantified by enzyme-linked immunoassay
How it was run: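 LTB4 formation, quantified by EIA after 10 min at rt, was the read-out once 9 ng LTA4 (free acid) was added to recombinant human enzyme (36 ng, Sf-9 expressed) that had sat 10 min with compound. Buffer: 0.1 M potassium phosphate pH 7.4 with fatty-acid-free BSA; IC50 by 4-parameter fit.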

Row | Structure (SMILES) | Ki
1 | c1ccc2sc(Oc3ccc(OCCN4C[C@@H]5C[C@H]4CN5)cc3)nc2c1 [Example 9B, (S,S)-2-{4-[2-(2,5-Diaza-bicyclo[2.2.1]hept-2-yl)-ethoxy]-phenoxy}-benzothiazole trifluoroacetate] | 43 nM
2 | CC(=O)N1[C@@H]2CC[C@H]1C[C@@H](N(C)Cc1ccc(Oc3nc4ccccc4s3)cc1)C2 [Example 74, meso-endo-1-(3-{[4-(Benzothiazol-2-yloxy)-benzyl]-methyl-amino}-8-aza-bicyclo[3.2.1]oct-8-yl)-ethanone] | 240 nM
3 | CC(=O)N1[C@@H]2CC[C@H]1C[C@@H](NCc1ccc(Oc3nc4ccc(F)cc4s3)cc1)C2 [Example 175, meso-endo-1-{3-[4-(6-Fluoro-benzothiazol-2-yloxy)-benzylamino]-8-aza-bicyclo[3.2.1]oct-8-yl}-ethanone] | 53 nM
4 | CS(=O)(=O)N1CCC2CN(Cc3ccc(Oc4nc5ccccc5s4)cc3)CC21 (stereo not shown) [Example 127, 2-[4-(1-Methanesulfonyl-hexahydro-pyrrolo[3,4-b]pyrrol-5-ylmethyl)-phenoxy]-benzothiazole] | 273 nM
5 | c1ccc2sc(Oc3ccc(CN4CC5CNCC5C4)cc3)nc2c1 (stereo not shown) [Example 83, 2-[4-(Hexahydro-pyrrolo[3,4-c]pyrrol-2-ylmethyl)-phenoxy]-benzothiazole hydrochloride] | 55 nM
6 | NC(=O)N1C[C@@H]2C[C@H]1CN2CCOc1ccc(Oc2nc3ccccc3s2)cc1 [Example 40, (S,S)-5-{2-[4-(Benzothiazol-2-yloxy)-phenoxy]-ethyl}-2,5-diaza-bicyclo[2.2.1]heptane-2-carboxylic acid amide] | 38 nM
7 | CC(=O)N1[C@@H]2CC[C@H]1C[C@H](NCCOc1ccc(Oc3nc4ccc(Cl)cc4s3)cc1)C2 [Example 178, meso-exo-1-(3-{2-[4-(6-Chloro-benzothiazol-2-yloxy)-phenoxy]-ethylamino}-8-aza-bicyclo[3.2.1]oct-8-yl)-ethanone] | 900 nM
8 | O=C(CNC(=O)C(F)(F)F)N1CCC2CN(Cc3ccc(Oc4nc5ccccc5s4)cc3)CC21 (stereo not shown) [Example 98, N-(2-{5-[4-(Benzothiazol-2-yloxy)-benzyl]-hexahydro-pyrrolo[3,4-b]pyrrol-1-yl}-2-oxo-ethyl)-2,2,2-trifluoro-acetamide] | 40 nM
9 | O=C(c1ccc[nH]1)N1C[C@@H]2C[C@H]1CN2CCOc1ccc(Oc2nc3ccccc3s2)cc1 [Example 65, (S,S)-(5-{2-[4-(Benzothiazol-2-yloxy)-phenoxy]-ethyl}-2,5-diaza-bicyclo[2.2.1]hept-2-yl)-(1H-pyrrol-2-yl)-methanone] | 64 nM
10 | NC(=O)N[C@H]1C[C@H]2CC[C@@H](C1)N2CCc1ccc(Oc2nc3ccc(Cl)cc3s2)cc1 [Example 239, meso-endo-(8-{2-[4-(6-Chloro-benzothiazol-2-yloxy)-phenyl]-ethyl}-8-aza-bicyclo[3.2.1]oct-3-yl)-urea] | 130 nM
11 | CS(=O)(=O)N1CC2CCN(Cc3ccc(Oc4nc5ccccc5s4)cc3)C2C1 (stereo not shown) [Example 128, 2-[4-(5-Methanesulfonyl-hexahydro-pyrrolo[3,4-b]pyrrol-1-ylmethyl)-phenoxy]-benzothiazole] | 120 nM
12 | NC(=O)N1C2CCC1CN(Cc1ccc(Oc3nc4ccccc4s3)cc1)C2 [Example 59, meso-3-[4-(Benzothiazol-2-yloxy)-benzyl]-3,8-diaza-bicyclo[3.2.1]octane-8-carboxylic acid amide] | 174 nM
13 | c1ccc2sc(Cc3ccc(CN4C[C@@H]5C[C@H]4CN5)cc3)nc2c1 [Example 4D, (S,S)-2-[4-(2,5-Diaza-bicyclo[2.2.1]hept-2-ylmethyl)-benzyl]-benzothiazole dihydrochloride] | 260 nM
14 | NC(=O)N1C[C@H]2C[C@@H]1CN2CCc1ccc(Oc2nc3c(Cl)cccc3s2)cc1 [Example 252, (R,R)-5-{2-[4-(4-Chloro-benzothiazol-2-yloxy)-phenyl]-ethyl}-2,5-diaza-bicyclo[2.2.1]heptane-2-carboxylic acid amide] | 108 nM
15 | CC(=O)N1[C@@H]2CC[C@H]1C[C@@H](NCCOc1ccc(Oc3nc4ccc(C)cc4s3)cc1)C2 [Example 172, meso-exo-1-(3-{2-[4-(6-Methyl-benzothiazol-2-yloxy)-phenoxy]-ethylamino}-8-aza-bicyclo[3.2.1]oct-8-yl)-ethanone] | 1050 nM
16 | O=C([C@H]1CCCO1)N1CC2CN(Cc3ccc(Oc4nc5ccccc5s4)cc3)CC2C1 (stereo partly drawn) [Example 100, (R)-{5-[4-(Benzothiazol-2-yloxy)-benzyl]-hexahydro-pyrrolo[3,4-c]pyrrol-2-yl}-(tetrahydro-furan-2-yl)-methanone] | 168 nM

Row | Structure (SMILES) | Ki
17 | Cn1ccc(S(=O)(=O)N2CC3CN(Cc4ccc(Oc5nc6ccccc6s5)cc4)CC3C2)c1 (stereo not shown) [Example 123, 2-{4-[5-(1-Methyl-1H-pyrrole-3-sulfonyl)-hexahydro-pyrrolo[3,4-c]pyrrol-2-ylmethyl]-phenoxy}-benzothiazole] | 97 nM
18 | CC(C)(O)C(=O)N1C2CCC1CN(Cc1ccc(Oc3nc4ccccc4s3)cc1)C2 [Example 53, meso-1-{3-[4-(Benzothiazol-2-yloxy)-benzyl]-3,8-diaza-bicyclo[3.2.1]oct-8-yl}-2-hydroxy-2-methyl-propan-1-one] | 117 nM
19 | NC(=O)N1CC2CN(Cc3ccc(Oc4nc5ccccc5s4)cc3F)CC2C1 (stereo not shown) [Example 159, 5-[4-(Benzothiazol-2-yloxy)-2-fluoro-benzyl]-hexahydro-pyrrolo[3,4-c]pyrrole-2-carboxylic acid amide] | 110 nM
20 | COCC(=O)N1C[C@@H]2C[C@H]1CN2CCOc1ccc(Oc2nc3ccccc3s2)cc1 [Example 22, (S,S)-1-(5-{2-[4-(Benzothiazol-2-yloxy)-phenoxy]-ethyl}-2,5-diaza-bicyclo[2.2.1]hept-2-yl)-2-methoxy-ethanone] | 10 nM
21 | CC(=O)N[C@H]1C[C@H]2CC[C@@H](C1)N2CCc1ccc(Oc2nc3cccc(Cl)c3s2)cc1 [Example 187, meso-endo-N-(8-{2-[4-(7-Chloro-benzothiazol-2-yloxy)-phenyl]-ethyl}-8-aza-bicyclo[3.2.1]oct-3-yl)-acetamide] | 975 nM
22 | COC(=O)CCCN1CC2CN(Cc3ccc(Oc4nc5ccccc5s4)cc3)CC2C1 (stereo not shown) [Example 156, 4-{5-[4-(Benzothiazol-2-yloxy)-benzyl]-hexahydro-pyrrolo[3,4-c]pyrrol-2-yl}-butyric acid methyl ester] | 47 nM
23 | NC(=O)N1C[C@H]2C[C@@H]1CN2Cc1ccc(Oc2nc3ccccc3s2)cc1 [Example 34, (R,R)-5-[4-(Benzothiazol-2-yloxy)-benzyl]-2,5-diaza-bicyclo[2.2.1]heptane-2-carboxylic acid amide] | 7 nM
24 | CC(=O)N1CC2CN(Cc3ccc(Oc4nc5ccccc5s4)cc3)CC2C1 (stereo not shown) [Example 88, 1-{5-[4-(Benzothiazol-2-yloxy)-benzyl]-hexahydro-pyrrolo[3,4-c]pyrrol-2-yl}-ethanone] | 3 nM
25 | CC(=O)N1C[C@H]2C[C@@H]1CN2Cc1ccc(Oc2nc3c(Cl)cccc3s2)cc1 [Example 164, (R,R)-1-{5-[4-(4-Chloro-benzothiazol-2-yloxy)-benzyl]-2,5-diaza-bicyclo[2.2.1]hept-2-yl}-ethanone] | 417 nM
26 | NC(=O)N1CC2CCC(C1)N2Cc1ccc(Oc2nc3ccccc3s2)cc1F [Example 76, meso-8-[4-(Benzothiazol-2-yloxy)-2-fluoro-benzyl]-3,8-diaza-bicyclo[3.2.1]octane-3-carboxylic acid amide] | 195 nM
27 | CC(=O)N1C[C@@H]2C[C@H]1CN2CCc1ccc(Oc2nc3c(Cl)cccc3s2)cc1 [Example 253, (S,S)-1-(5-{2-[4-(4-Chloro-benzothiazol-2-yloxy)-phenyl]-ethyl}-2,5-diaza-bicyclo[2.2.1]hept-2-yl)-ethanone] | 2600 nM
28 | CS(=O)(=O)N1CC2CCC(C1)N2CCOc1ccc(Oc2nc3cccc(F)c3s2)cc1 [Example 211, meso-7-Fluoro-2-{4-[2-(3-methanesulfonyl-3,8-diaza-bicyclo[3.2.1]oct-8-yl)-ethoxy]-phenoxy}-benzothiazole] | 159 nM
29 | CC(=O)N(C)[C@H]1C[C@H]2CC[C@@H](C1)N2Cc1ccc(Oc2nc3ccccc3s2)cc1 [Example 70, meso-endo-N-{8-[4-(Benzothiazol-2-yloxy)-benzyl]-8-aza-bicyclo[3.2.1]oct-3-yl}-N-methyl-acetamide] | 4 nM
30 | NC(=O)N1[C@@H]2CC[C@H]1C[C@@H](NCc1ccc(Oc3nc4c(F)cccc4s3)cc1)C2 [Example 198, meso-endo-3-[4-(4-Fluoro-benzothiazol-2-yloxy)-benzylamino]-8-aza-bicyclo[3.2.1]octane-8-carboxylic acid amide] | 9 nM
31 | O=C([C@@H]1CCCO1)N1CC2CN(Cc3ccc(Oc4nc5ccccc5s4)cc3)CC2C1 (stereo partly drawn) [Example 101, (S)-{5-[4-(Benzothiazol-2-yloxy)-benzyl]-hexahydro-pyrrolo[3,4-c]pyrrol-2-yl}-(tetrahydro-furan-2-yl)-methanone] | 108 nM
